Assay results reported in patent US12029682B2, “Spray ejector mechanisms and devices providing charge isolation and controllable droplet charge, and low dosage volume ophthalmic administration” (EYENOVIA, INC., priority 2012, dated 2024).
Entries after “also recorded” stand apart in the source; their conditions may differ.

How the values were obtained:
Format in all cases: in vivo, beagle dog
[1] = tested on: glaucomatous beagles; test: Intraocular pressure (IOP), TonoVet, in glaucomatous beagles
Experimental: (§1) One glaucomatous beagle dog (female, aged 3 years) from the University of Florida MacKay Colony of Glaucomatous Beagles was chosen for this study. The animal was rested a minimum of one week before starting the study. Prior to the commencement of the study, the animal was assigned one eye to receive 1.5 μl of 0.005% latanoprost and the contralateral eye to remain untreated as a control. The basic measurement protocol was followed at all times and performed by the same operator. PD was measured via Jameson Caliper (mm horizontally). IOP was measured using a TonoVet instrument with clean probe (iCare). IOP and PD were measured at time 0, 1, 2, 4, 7 and 18 hours daily for two days. Immediately after the time 0 measurement, the animal received 1.5 μl of 0.005% latanoprost in its assigned eye with a spray device. The contralateral eye was left untreated. The spray device was checked for accuracy before and after every use, and required a 10% delivered dose accuracy in pretreatment. Standard measurements continued throughout each day at time 1, 2, 4, 7 and 18 hours. Possible endpoints included, but were not limited to, excessive ocular irritation, ocular damage, and other illness or injury. No statistical crossover was utilized for this study.
as §1, with “study.” for “study. The animal was rested a minimum of one week before starting the study.”, “receive 3.0” for “receive 1.5”, “0 measurements,” for “0 measurement,”, “animal was administered 3.0” for “animal received 1.5”, “eye using” for “eye with”, “spray ejector” for “spray”
All animals were rested for a minimum of one week before starting the trials. IOP and pupil diameter (PD) were measured 5 times (at 0, 1, 2, 4, and 7 hours) daily for four days (study days 1-4) to establish initial baseline levels. The basic measurement protocol was followed at all times and performed by the same operator. PD was measured via Jameson Caliper (mm horizontally). IOP was measured with a TonoVet instrument with clean probe (iCare). After three rest days, one eye was randomly assigned to receive 9 μl of 0.005% latanoprost delivered via a spray ejector device, and the contralateral eye was administered traditional latanoprost from a traditional eyedropper container (26-30 μl).
On study days 5-9, IOP and PD measurements were taken at approximately 0900 h (time 0). Immediately after time 0 measurements, each animal received a once-daily dose of 9 μl of generic 0.005% latanoprost in its assigned eye via the spray ejector device. The contralateral eye received a clinical dose (one drop) of the same commercially available topical drug from a traditional eyedropper (positive control). The spray ejector device was checked for accuracy before and after every use and required a 10% delivered dose accuracy in pretreatment. Standard measurements continued throughout each day at 0, 1, 2, 4, and 7 hours. Possible endpoints included, but were not limited to, excessive ocular irritation, ocular damage, and other illness or injury. No statistical crossover was utilized for this study. […]

[2] = tested on: glaucomatous beagles; test: Ocular irritation observations in glaucomatous beagles
Experimental: Active drug delivery begins on study day eight. For five days, IOP and PD measurements are taken at 0900. Immediately after 0900 measurements (time 0), each animal receives 6 μl of generic latanoprost in its assigned eye with the ejector device, followed by a second dosing 3 minutes later of an additional 6 μl (to avoid overloading the conjunctival sac). The contralateral eye receives a clinical dose (one drop) of the same commercially-available topical drug from FDA approved container (positive control). The ejector device is checked for accuracy before and after every use (Table 1). Standard measurements continue throughout each day (at 0:30, 0:45, 1, 2, 7 hrs). Possible endpoints include, but are not limited to, excessive ocular irritation, ocular damage, or other illness and injury. […]
On study days 5-9, IOP and PD measurements were taken at approximately 0900 h (time 0). Immediately after these measurements, each animal received 6 μl of 0.03% bimatoprost in its assigned eye via the spray ejector device. The contralateral eye received a clinical dose (one drop) of the same commercially available topical drug from a traditional eyedropper (positive control). The spray ejector device was checked for accuracy before and after every use and required a 10% delivered dose accuracy in pretreatment. Standard measurements continued throughout each day at 0, 1, 2, 4, and 7 hours. Possible endpoints included, but were not limited to, excessive ocular irritation, ocular damage, and other illness or injury. No statistical crossover was utilized for this study.
Ophthalmic examinations (slit lamp with fluorescein and indirect ophthalmoscopy) were performed on the eyes of each animal prior to Study Day 1. Ocular findings were scored according to the McDonald-Shadduck Score System. Ocular findings were recorded using a standardized data collection sheet. Macroscopic observations were recorded in accordance with the Draize Scale for Scoring Ocular Lesions. Animals were assigned treatments based on basic randomization prior to study day one.
Following a 7 day rest period, the eye choice was reversed. Measurements of IOP, heart rate and pupil diameter (PD) were made at 0:15, 0:30, 0:45, 1, 2, 4, 7, and 18 hours in the primary and crossover study. A veterinary ophthalmologist evaluated each test subject before and after the study for evidence of ocular side effects.
Ophthalmic examinations (slit lamp with fluorescein and indirect ophthalmoscopy) were performed on the eyes of each animal prior to study day 1. Ocular findings were scored according to the McDonald-Shadduck score system and macroscopic observations were recorded in accordance with the Draize scale for scoring ocular lesions. Ocular findings were recorded using a standardized data collection sheet.

[3] = tested on: glaucomatous beagles; test: Intraocular pressure (IOP), TonoVet, in glaucomatous beagles; conditions: for IOP decrease: 6.0 μl at 0.025% via spray ejector device and 0.005% eyedropper had similar results
[4] = tested on: glaucomatous beagles; test: Pupil diameter (PD), Jameson Caliper, in glaucomatous beagles
[5] = 1.5 μl of 0.005% once daily, spray ejector device, one dog, by hour 2
[6] = 3.0 μl of 0.005% once daily, spray ejector device, one dog, by hour 2
[7] = 12 μl of 0.005% BID via spray ejector device

In the case of CC(C)OC(=O)CCC/C=C\C[C@@H]1[C@@H](CC[C@@H](O)CCc2ccccc2)[C@H](O)C[C@@H]1O [latanoprost], the “IOP in the treated eye” value [1, 5] is reported as 11 mmHg, the “effectiveness at lowering IOP and constricting the pupil vs traditional therapy” value ([1]; 1.5 μl of 0.005% via Whisper MDD) is reported as “as effective at lowering IOP and constricting the pupil as traditional therapy” and the “time of maximum decrease in IOP” value ([1]; 3.0 μl of 0.005% once daily, spray ejector device, one dog) is reported as “hour 7 on day 2”. The “decrease in IOP from the initial value” [1, 6] was 12 mmHg, the “effectiveness at lowering/controlling IOP vs traditional eyedropper therapy” value ([1]; 9 μl of 0.005% once daily via spray ejector device vs one drop (26-30 μl), 5 days, 7-hour period) was “as effective at lowering IOP and constricting the pupil as traditional therapy; also recorded: as effective at controlling IOP as traditional eyedropper therapy” and the “maximum decrease in IOP” value ([1]; 12 μl of 0.005% BID via spray ejector device, study day 7 (first day of instillation)) was 28 mmHg. For the same compound, the IOP level ([1]; 12 μl of 0.005% BID via spray ejector device, study day 7, hour 7) was 15.5±2.2 mmHg, the “average daily change in IOP (maximum minus minimum)” value ([1]; one drop of 0.005% by eyedropper) was 14.6 mmHg and the “IOP: ejector device treatment vs traditional treatment” value ([1]; two 6 μl doses of 0.005% via ejector device vs one drop by eyedropper) was “no significant differences; also recorded: statistically indistinguishable”. For the same compound, the “ocular irritation, injury, or discomfort” value ([2]; 0.005%, either treatment (spray ejector device BID, eyedropper)) was “no significant reports of ocular irritation, injury, or discomfort”, the “excessive eye irritation or other eye issues” value ([2]; 0.005%, ejector device 12 μl and eyedropper) was “no reports of excessive eye irritation or other eye issues” and the irritation ([2]; 6.0 μl at 0.025% spray ejector device and 0.005% eyedropper) was “Normal irritation caused by prostaglandin analogues was present”. For the same compound, the “irritation vs eyedropper-treated eyes” value ([2]; 9 μl of 0.005% via spray ejector device) was “less than that observed in the eyedropper-treated eyes”, the “irritation to the eye with the lower dosage” value [2, 7] was “less irritation to the eye” and the “irritation vs eyedropper administration” value ([2]; five times (5×) concentration (0.025%) via spray ejector device) was “no more irritation than that occurring following eyedropper administration”. For the same compound, the conjunctival irritation ([2]; traditional treatment eyes (eyedropper), related to prostaglandin use) was “Some conjunctival irritation was noted”, the “duration of action vs spray ejector device” value ([3]; 0.005%, one drop (26-30 μl) by eyedropper) was “greater” and the “maximum decrease in IOP from the initial value” [3, 5] was 16 mmHg. For the same compound, the “IOP in the treated eye” value [3, 6] was 19 mmHg, the “effectiveness at lowering IOP and constricting the pupil vs traditional eyedropper therapy” value ([3]; 3.0 μl of 0.005% via spray ejector device) was “as effective at lowering IOP and constricting the pupil as traditional eyedropper therapy” and the “IOP values vs baseline” value ([3]; 9 μl of 0.005% once daily via spray ejector device) was “significantly lower than baseline”. The “average daily change / average fluctuation in IOP (maximum minus minimum)” value [3, 7] was 7.6 mmHg, the “average fluctuation in IOP” value [3, 7] was 30% and the “morning IOP spike compared to eyedropper delivery” value [3, 7] was “consistently prevented the anticipated morning IOP spike”. For the same compound, the “maximum IOP” value ([3]; 12 μl of 0.005% BID via spray ejector device, day 8) was 17.2±3.0 mmHg, the “minimum IOP” value ([3]; 12 μl of 0.005% BID via spray ejector device, day 8, hour 7) was 13.6±1.2 mmHg and the “maximum IOP” value ([3]; 12 μl of 0.005% BID via spray ejector device, day 9) was 26.2±6.3 mmHg. For the same compound, the “minimum IOP” value ([3]; 12 μl of 0.005% BID via spray ejector device, day 9, hour 4) was 16.2±1.5 mmHg, the “maximum IOP” value ([3]; 12 μl of 0.005% BID via spray ejector device, day 10) was 27.5±3.5 mmHg and the “minimum IOP” value ([3]; 12 μl of 0.005% BID via spray ejector device, day 10, hour 4) was 14.0±1.3 mmHg. For the same compound, the “maximum IOP” value ([3]; 12 μl of 0.005% BID via spray ejector device, day 11) was 26.5±2.8 mmHg, the “minimum IOP” value ([3]; 12 μl of 0.005% BID via spray ejector device, day 11, hour 7) was 14.7±0.9 mmHg and the “effectiveness at lowering/controlling IOP vs traditional eyedropper therapy” value ([3]; 30 μl of 0.005% once daily via spray ejector device, 2 dogs) was “as effective at lowering IOP and constricting the pupil as the traditional eyedropper therapy; also recorded: as effective in controlling IOP as traditional eyedropper therapy”. The “duration of action vs eyedropper” value ([3]; 30 μl of 0.005% via spray ejector device, pilot study) was “trend toward increased duration of action”, the “IOP: spray ejector device 6.0 μl at 0.025% vs 0.005% eyedropper” value ([3]; any point in the study (p=0.823)) was “no significant differences; also recorded: statistically equivalent” and the IOP decrease ([3]; first day of the study) was “approximately 45.4 mmHg”. The “maximum decrease in IOP” value ([3]; one drop of 0.005% by eyedropper, over the 5 days of the study) was 27.5 mmHg, the IOP decrease ([3]; subsequent days) was ~24.7 mmHg and the “duration of PD constriction vs eyedropper” value [4, 7] was “remained constricted much longer”. The “PD: spray ejector device 6.0 μl at 0.025% vs 0.005% eyedropper” value ([4]; any point in the study (p=0.943)) was “no significant differences”, the “minimum PD” value ([4]; both treatments (spray ejector device BID, eyedropper), by time 1 hour on most days) was “pinpoint” and the PD ([4]; by time 1 hour each day, 6.0 μl at 0.025% spray ejector device and 0.005% eyedropper) was 0 mm.
